Test results published in patent US8796268B2, “Heteroaryls and uses thereof” (Millennium Pharmaceuticals, Inc., priority 2010, dated 2014).

Assays:
Format in all cases: biochemical
Human PI3K delta = target: T1, Human PI3K delta (Homo sapiens, UniProt O00329); assay: Human PI3K delta enzyme assay (HTRF); details: concentration not given, b1389 states 1.0 μM for PI3K δ and γ; for inhibition at 1 µM: read-out: p110 delta Percent Inhibition
T1 construct: His (N); host or cells: SF9 insect cells (baculovirus)
Description: (§1) The catalytic subunits of PI3Ks are cloned into either pDEST8(p110 alpha) or pDEST10(p110beta, p110delta, and p110gamma) as N-terminal His tagged fusion proteins using the Gateway system (Invitrogen, catalog#11804-010 for pDEST8 and 11806-015 for pDEST10). The sequences are verified before recombinant protein expression using the Baculovirus Expression System with Gateway® Technology. The accession numbers for the subunits are as follows: • p110 alpha (GB:U79143) • p110beta (GB: S67334) • p110delta (GB: U86453) • p110gamma (GB: X83368) • The regulatory subunits of PI3Ks are cloned into pDEST8 as un-tagged protein using the Gateway system (Catalog#11804-010). The sequences are verified before recombinant protein expression using the Baculovirus Expression System with Gateway® Technology. The accession numbers for the subunits are as following: • p85 alpha (GB: BC030815) • p101(GB: AB028925) • VPS34 (accession number GB:BC033004) is cloned into pDEST20—Thombin as N-terminal GST tagged fusion proteins using the Gateway system (Invitrogen, catalog#11804-013). The sequences are verified before recombinant protein expression using the Baculovirus Expression System with Gateway® Technology.
(§2) For expression of the p110 complexes, the p85 (MOI of 4) is co-infected with p110 alpha, beta, and delta respectively (1MOI) in SF9 cells and harvested at 60 hours post co-infection. P110 gamma was infected at 1 MOI and harvested at 60 hours post infection.
(§3) For purification, PI3Ks are purified by Ni-NTA Agarose (Qiagen #30250) followed by Mono Q 10/100 GL (Ge Healthcare #17-5167-01). VPS34 is purified by Glutathione Sepharose 4 Fast Flow (GE Healthcare #17-5132-03) followed by HiTrap Q (GE Healthcare #17-1153-01).
(§4) 0.5 uL compounds in DMSO are added to wells of a 384 well microtitre plate (Corning 3575). At room temperature: 10 ul PI3K reaction buffer (50 mM Hepes, 5 mM DTT, 150 mM NaCl, 10 mM beta-glycerophosphate, 10 mM MgCl2, 0.25 mM sodium cholate and 0.001% CHAPS, pH 7.00) containing ATP (25 uM, Promega) is added followed immediately by 10 ul PI3K reaction buffer containing di-C8 P1(4,5)P2 (3.5 uM, CellSignals) and PI3Kalpha (0.4875 nM, Millennium Protein Sciences Group) and the mixture is incubated with shaking at room temperature for 30 minutes. Then 5 ul PI3K stop mix (50 mM Hepes, 5 mM DTT, 150 mM NaCl, 0.01% Tween-20, 15 mM EDTA and 25 nM biotin-PI(3,4,5)P3 (Echelon) is added to quench the reaction followed immediately by addition of 5 ul HTRF detection mix (50 mM Hepes, 5 mM DTT, 150 mM NaCl, 0.01% Tween-20, 40 mM KF, 1.0 nM GST:GRP-1 PH domain (Millennium Protein Sciences Group), 15 nM Streptavidin-XL (CisBio) and 0.375 nM anti-GST Eu++ antibody (CisBio) at pH 7.00). The plates are then incubated for 1 hour at room temperature with shaking and then read on a BMG PheraStar Plus reader.
(§5) 2) Human PI3K beta, delta and gamma isoforms are tested using the procedure described for PI3K alpha above but with the following changes: PI3K beta (5.25 nM), PI3K delta (0.75 nM) and PI3K gamma (5 nM). All isoforms supplied by Millennium Protein Science Group.
(§6) For the assay methods described above, test compound percent inhibition, at various concentrations, is calculated relative to control (DMSO and EDTA) treated samples. Compound concentration versus percent inhibition curves are fitted to generate IC50 values. One skilled in the art will appreciate that the values generated either as percentage inhibition at a single concentration or IC50 values are subject to experimental variation.

Human PI3K beta = target: T2, Human PI3K beta (Homo sapiens, UniProt P42338); assay: Human PI3K beta enzyme assay (HTRF); details: for inhibition at 1.1 µM: read-out: p110 beta Percent Inhibition; for IC50: read-out: PI3 Kbeta IC50
T2 construct: His (N); host or cells: SF9 insect cells (baculovirus)
Description: as §1, §2, §3, §4, §5, §6

Human PI3K alpha = target: T3, Human PI3K alpha (Homo sapiens, UniProt P42336); assay: Human PI3K alpha enzyme assay (HTRF); details: for inhibition at 1.1 µM: read-out: p110 alpha Percent Inhibition; for IC50: read-out: PI3Kalpha IC50
T3 construct: His (N); host or cells: SF9 insect cells (baculovirus)
Description: as §1, §2, §3
1) Human PI3K alpha enzyme assay method
as §4, §6

Human PI3K gamma = target: T4, Human PI3K gamma (Homo sapiens, UniProt P48736); assay: Human PI3K gamma enzyme assay (HTRF); details: concentration not given, b1389 states 1.0 μM for PI3K δ and γ; for inhibition at 1 µM: read-out: p110 gamma Percent Inhibition
T4 construct: His (N); host or cells: SF9 insect cells (baculovirus)
Description: as §1, §2, §3, §4, §5, §6

[1] = concentration not given, b1387 states 1.1 μM for PI3K α and β

T2 sequence (P42338 whole entry): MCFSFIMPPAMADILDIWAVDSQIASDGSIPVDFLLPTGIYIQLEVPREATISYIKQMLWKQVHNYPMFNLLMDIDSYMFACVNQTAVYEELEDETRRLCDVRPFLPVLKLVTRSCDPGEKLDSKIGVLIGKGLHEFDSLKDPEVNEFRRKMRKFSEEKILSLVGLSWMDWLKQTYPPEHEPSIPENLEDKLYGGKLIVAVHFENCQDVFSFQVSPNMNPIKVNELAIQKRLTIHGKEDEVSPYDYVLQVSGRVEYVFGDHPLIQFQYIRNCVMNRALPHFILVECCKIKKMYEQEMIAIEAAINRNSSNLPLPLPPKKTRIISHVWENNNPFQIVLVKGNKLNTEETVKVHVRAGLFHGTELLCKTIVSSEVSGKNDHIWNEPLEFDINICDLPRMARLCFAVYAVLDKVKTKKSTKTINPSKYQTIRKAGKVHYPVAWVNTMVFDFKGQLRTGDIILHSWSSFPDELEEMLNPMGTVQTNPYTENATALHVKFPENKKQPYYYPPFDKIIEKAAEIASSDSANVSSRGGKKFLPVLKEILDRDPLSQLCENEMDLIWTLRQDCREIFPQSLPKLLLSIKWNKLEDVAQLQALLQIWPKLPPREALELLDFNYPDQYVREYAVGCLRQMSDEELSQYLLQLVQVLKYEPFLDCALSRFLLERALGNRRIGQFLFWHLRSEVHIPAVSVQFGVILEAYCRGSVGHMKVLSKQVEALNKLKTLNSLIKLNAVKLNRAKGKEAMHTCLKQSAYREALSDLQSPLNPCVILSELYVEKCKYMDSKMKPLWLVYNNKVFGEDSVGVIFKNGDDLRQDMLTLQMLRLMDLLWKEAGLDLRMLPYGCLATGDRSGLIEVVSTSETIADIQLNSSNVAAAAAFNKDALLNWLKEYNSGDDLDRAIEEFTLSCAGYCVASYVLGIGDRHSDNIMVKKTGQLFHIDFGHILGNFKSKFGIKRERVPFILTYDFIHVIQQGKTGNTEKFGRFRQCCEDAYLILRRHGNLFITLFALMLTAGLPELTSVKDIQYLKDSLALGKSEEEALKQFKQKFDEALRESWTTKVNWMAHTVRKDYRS
T2 sequence (P27986 whole entry partner): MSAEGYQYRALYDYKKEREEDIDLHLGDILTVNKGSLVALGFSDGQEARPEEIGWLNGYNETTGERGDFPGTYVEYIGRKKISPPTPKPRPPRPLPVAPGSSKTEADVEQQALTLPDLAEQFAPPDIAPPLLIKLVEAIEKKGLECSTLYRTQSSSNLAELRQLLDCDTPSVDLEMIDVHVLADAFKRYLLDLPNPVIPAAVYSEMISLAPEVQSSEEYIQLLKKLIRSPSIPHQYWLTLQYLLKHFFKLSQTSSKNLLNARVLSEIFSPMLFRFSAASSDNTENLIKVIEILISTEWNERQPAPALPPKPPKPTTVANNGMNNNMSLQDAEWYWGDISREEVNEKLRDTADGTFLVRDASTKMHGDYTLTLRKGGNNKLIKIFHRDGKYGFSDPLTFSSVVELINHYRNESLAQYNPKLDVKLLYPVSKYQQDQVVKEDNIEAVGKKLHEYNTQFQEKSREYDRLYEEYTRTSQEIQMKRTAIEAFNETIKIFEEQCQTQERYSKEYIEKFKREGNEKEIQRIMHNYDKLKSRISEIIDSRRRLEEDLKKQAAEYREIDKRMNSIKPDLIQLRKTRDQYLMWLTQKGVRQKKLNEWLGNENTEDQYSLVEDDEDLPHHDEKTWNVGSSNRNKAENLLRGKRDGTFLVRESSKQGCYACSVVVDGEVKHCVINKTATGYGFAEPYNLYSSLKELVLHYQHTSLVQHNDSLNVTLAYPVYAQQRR
T1 sequence (O00329 whole entry): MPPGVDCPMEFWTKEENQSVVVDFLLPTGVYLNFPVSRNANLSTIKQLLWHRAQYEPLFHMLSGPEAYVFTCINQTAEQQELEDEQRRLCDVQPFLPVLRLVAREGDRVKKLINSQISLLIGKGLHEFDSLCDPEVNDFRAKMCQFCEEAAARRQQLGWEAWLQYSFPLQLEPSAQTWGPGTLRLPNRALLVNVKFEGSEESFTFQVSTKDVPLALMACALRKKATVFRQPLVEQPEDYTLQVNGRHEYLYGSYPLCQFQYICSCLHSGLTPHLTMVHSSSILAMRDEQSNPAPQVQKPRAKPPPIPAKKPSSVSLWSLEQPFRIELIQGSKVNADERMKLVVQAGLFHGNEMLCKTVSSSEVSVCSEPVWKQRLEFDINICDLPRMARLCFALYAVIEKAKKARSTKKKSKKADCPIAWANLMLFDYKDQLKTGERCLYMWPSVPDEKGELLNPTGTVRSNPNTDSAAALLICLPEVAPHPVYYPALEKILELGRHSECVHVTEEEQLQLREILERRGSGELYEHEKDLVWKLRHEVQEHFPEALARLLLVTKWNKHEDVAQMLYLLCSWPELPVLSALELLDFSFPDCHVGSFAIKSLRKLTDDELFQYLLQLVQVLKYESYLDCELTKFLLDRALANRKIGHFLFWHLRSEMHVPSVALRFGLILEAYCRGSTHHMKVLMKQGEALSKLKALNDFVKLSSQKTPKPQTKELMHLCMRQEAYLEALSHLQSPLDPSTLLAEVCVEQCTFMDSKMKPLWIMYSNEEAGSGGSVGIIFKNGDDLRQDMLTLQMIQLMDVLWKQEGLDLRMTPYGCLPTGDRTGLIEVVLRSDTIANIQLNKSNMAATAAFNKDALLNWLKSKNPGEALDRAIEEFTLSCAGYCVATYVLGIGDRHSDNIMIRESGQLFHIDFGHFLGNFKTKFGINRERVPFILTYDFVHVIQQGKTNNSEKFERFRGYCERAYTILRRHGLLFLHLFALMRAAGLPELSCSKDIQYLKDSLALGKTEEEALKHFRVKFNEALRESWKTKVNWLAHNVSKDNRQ
T1 sequence (P27986 whole entry partner): as the sequence (P27986 whole entry partner) above
T4 sequence (P48736 whole entry): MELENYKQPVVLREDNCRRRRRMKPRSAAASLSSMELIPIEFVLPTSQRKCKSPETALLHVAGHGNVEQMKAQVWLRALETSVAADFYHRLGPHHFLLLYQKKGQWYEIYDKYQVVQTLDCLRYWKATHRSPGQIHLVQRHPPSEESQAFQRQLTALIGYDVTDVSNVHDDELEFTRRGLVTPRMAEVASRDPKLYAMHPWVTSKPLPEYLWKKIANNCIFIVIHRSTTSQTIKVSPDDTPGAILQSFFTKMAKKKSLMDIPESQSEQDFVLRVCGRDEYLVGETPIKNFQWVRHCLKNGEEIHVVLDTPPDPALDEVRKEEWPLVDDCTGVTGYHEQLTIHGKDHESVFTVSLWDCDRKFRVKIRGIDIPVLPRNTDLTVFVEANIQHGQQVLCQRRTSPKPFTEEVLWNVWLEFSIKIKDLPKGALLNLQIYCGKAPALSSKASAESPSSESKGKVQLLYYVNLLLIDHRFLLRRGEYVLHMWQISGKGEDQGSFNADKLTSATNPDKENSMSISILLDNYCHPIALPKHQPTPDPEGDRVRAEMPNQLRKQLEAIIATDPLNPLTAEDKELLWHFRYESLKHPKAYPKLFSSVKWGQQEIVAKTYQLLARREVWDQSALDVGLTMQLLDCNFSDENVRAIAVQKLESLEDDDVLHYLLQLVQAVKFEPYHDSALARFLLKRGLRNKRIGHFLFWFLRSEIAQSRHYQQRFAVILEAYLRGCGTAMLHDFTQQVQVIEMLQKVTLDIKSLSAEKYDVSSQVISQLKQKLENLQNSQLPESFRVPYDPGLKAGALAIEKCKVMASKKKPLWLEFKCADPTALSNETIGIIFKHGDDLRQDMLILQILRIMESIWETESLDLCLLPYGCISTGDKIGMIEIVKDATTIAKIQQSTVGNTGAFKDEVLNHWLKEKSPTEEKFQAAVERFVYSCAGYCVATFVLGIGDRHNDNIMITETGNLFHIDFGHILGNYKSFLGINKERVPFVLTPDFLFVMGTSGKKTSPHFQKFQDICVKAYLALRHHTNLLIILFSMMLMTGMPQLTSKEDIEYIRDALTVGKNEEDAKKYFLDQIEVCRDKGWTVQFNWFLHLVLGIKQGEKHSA
T3 sequence (P42336 whole entry): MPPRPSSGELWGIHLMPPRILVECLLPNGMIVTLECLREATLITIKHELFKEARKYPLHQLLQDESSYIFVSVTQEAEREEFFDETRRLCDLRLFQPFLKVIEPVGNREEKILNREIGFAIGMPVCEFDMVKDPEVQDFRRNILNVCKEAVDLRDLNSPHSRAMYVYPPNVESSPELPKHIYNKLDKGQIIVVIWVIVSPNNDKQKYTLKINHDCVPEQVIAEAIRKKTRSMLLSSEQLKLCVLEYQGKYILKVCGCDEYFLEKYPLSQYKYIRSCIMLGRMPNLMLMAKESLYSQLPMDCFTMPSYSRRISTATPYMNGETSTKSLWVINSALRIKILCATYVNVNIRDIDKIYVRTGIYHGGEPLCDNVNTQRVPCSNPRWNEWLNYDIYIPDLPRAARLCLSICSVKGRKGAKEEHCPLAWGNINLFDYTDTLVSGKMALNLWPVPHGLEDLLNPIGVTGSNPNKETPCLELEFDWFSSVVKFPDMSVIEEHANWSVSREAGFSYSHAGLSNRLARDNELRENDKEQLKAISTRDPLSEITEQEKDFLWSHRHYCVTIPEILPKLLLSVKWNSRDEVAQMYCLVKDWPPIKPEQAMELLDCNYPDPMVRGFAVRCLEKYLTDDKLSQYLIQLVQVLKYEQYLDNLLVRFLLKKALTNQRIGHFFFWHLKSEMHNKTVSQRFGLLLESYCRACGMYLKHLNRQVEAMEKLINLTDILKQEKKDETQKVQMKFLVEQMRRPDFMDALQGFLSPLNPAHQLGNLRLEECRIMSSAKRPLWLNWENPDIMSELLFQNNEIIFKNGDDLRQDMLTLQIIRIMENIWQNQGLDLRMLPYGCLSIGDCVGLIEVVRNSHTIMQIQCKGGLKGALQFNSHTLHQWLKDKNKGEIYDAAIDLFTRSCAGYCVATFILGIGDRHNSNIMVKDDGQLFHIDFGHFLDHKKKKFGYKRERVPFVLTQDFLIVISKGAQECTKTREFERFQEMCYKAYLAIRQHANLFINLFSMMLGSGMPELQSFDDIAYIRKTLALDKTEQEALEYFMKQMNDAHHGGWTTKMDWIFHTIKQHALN
T3 sequence (P27986 whole entry partner): as the sequence (P27986 whole entry partner) above

SMILES	IC50 (Human PI3K beta) [nM]	IC50 (Human PI3K alpha) [nM]	also measured
CC(=O)Nc1cc(-c2cc([C@@H](c3ccc(Cl)cc3)N3CCC3)c(-c3nnc[nH]3)s2)ccn1 (single isomer, unassigned) [Compound 176]			inhibition at 1 µM (Human PI3K delta): 109%; inhibition at 1.1 µM (Human PI3K beta; [1]): 109%; inhibition at 1.1 µM (Human PI3K alpha; [1]): 76%; inhibition at 1 µM (Human PI3K gamma): 35%
CC(=O)Nc1cc(-c2cc(C(c3ccc(Cl)cc3)N3CCC[C@H]3CO)c(-c3nnc[nH]3)s2)ccn1 (single isomer, unassigned) [Compound 192]			p110 delta Percent Inhibition (Human PI3K delta): 100%; p110 beta Percent Inhibition (Human PI3K beta; [1]): 90%; p110 alpha Percent Inhibition (Human PI3K alpha; [1]): 48%; p110 gamma Percent Inhibition (Human PI3K gamma): 12%
CC(=O)Nc1cc(-c2cc([C@@H](c3ccc(Cl)cc3)N(C)C)c(-c3nnc[nH]3)s2)ccn1 (single isomer, unassigned) [Compound 204]			inhibition at 1 µM (Human PI3K delta): 90%; inhibition at 1.1 µM (Human PI3K beta; [1]): 101%; inhibition at 1.1 µM (Human PI3K alpha; [1]): 70%; inhibition at 1 µM (Human PI3K gamma): 25%
CC(=O)Nc1cc(-c2cc([C@H](c3ccc(Cl)cc3)N3CCC3)c(-c3nnc[nH]3)s2)ccn1 (single isomer, unassigned) [Compound 241]			inhibition at 1 µM (Human PI3K delta): 104%; inhibition at 1.1 µM (Human PI3K beta; [1]): 107%; inhibition at 1.1 µM (Human PI3K alpha; [1]): 59%; inhibition at 1 µM (Human PI3K gamma): 27%
Fc1cnccc1-c1nc(Cc2ccc(Cl)cc2)c(-c2nc[nH]n2)s1 [Compound 78]	> 1000	> 1000	
Cc1nn2ccc(CNCCNC(=O)OC(C)(C)C)cc2c1-c1nc(Cc2ccc(Cl)cc2)c(-c2nnc[nH]2)s1 [Compound 82]	100 to 1000	100 to 1000	
Cc1nn2ccc(CN(CCN)Cc3ccccc3)cc2c1-c1nc(Cc2ccc(Cl)cc2)c(-c2nnc[nH]2)s1 [Compound 83]	100 to 1000	100 to 1000	
O[C@@H](c1ccc(Cl)cc1)c1cc(-c2ccncc2)sc1-c1nnc[nH]1 [Compound 84]	100 to 1000	> 1000	

Further lines, with some results ahead:

IC50 (Human PI3K beta) [nM]	IC50 (Human PI3K alpha) [nM]	SMILES	also measured
100 to 1000	> 1000	Clc1ccc(Cc2nc(-c3ccncc3)sc2-c2nnc[nH]2)cc1 [Compound 76, 4-(4-chlorobenzyl)-2-(pyridin-4-yl)-5-(4H-1,2,4-triazol-3-yl)thiazole]	
< 100	> 1000	O[C@H](c1ccc(Cl)cc1)c1cc(-c2ccncc2)sc1-c1nnc[nH]1 [Compound 77]	
100 to 1000	> 1000	OC(c1ccc(Cl)cc1)c1cc(-c2ccnnc2)sc1-c1nnc[nH]1 (stereo not drawn) [Compound 79]	
< 100	> 1000	O=C(O)c1sc(-c2ccncc2)nc1Cc1ccc(Cl)cc1 [Compound 80, 4-(4-chlorobenzyl)-2-(pyridin-4-yl)thiazole-5-carboxylic acid]	
< 100	> 1000	N#Cc1cc(-c2cc(C(O)c3ccc(Cl)cc3)c(-c3nnc[nH]3)s2)ccn1 (stereo not drawn) [Compound 81, 4-(4-((4-chlorophenyl)(hydroxy)methyl)-5-(4H-1,2,4-triazol-3-yl)thiophen-2-yl)picolinonitrile]	
< 100	> 1000	COc1ccc(C(O)c2cc(-c3ccncc3)sc2-c2nnc[nH]2)cc1 (stereo not drawn) [Compound 85, (4-methoxyphenyl)[5-pyridin-4-yl-2-(4H-1,2,4-triazol-3-yl)-3-thienyl]methanol]	
< 100	100 to 1000	CC(=O)Nc1cc(-c2cc(C(c3ccc(Cl)cc3)N(C)C)c(-c3nnc[nH]3)s2)ccn1 (stereo not drawn) [Compound 86]	
< 100	> 1000	c1ccc2cc(Cc3nc(-c4ccncc4)sc3-c3nnc[nH]3)ccc2c1 [Compound 87]	
< 100	> 1000	N#Cc1c(-c2ccnnc2)sc(-c2nnc[nH]2)c1Cc1ccc2ccccc2c1 [Compound 88, 4-(2-naphthylmethyl)-2-pyridazin-4-yl-5-(4H-1,2,4-triazol-3-yl)thiophene-3-carbonitrile]	
